Source: patent publication US7029879B1, “Iodine uptake restoration in thyroid cancer” (University of Kentucky Research Foundation, priority 1999, dated 2006)

What was measured:
[1] = system: UCLA RO 82 W-1 (WRO82) cells; details: UCLA RO 82 W-1 (WRO82) follicular carcinoma cell line; cited from earlier work
[2] = system: dedifferentiated follicular and papillary thyroid cancers; details: of 14 patients not concentrating any radioiodine in metastatic tumors at baseline; cited from earlier work
[3] = system: thyroid peroxidase (TPO) mRNA; experiment: Thyroid peroxidase (TPO) mRNA RT-PCR after polyamine synthesis inhibition; assay type: cell-based, human; details: NPA'87 and KAK-1; minimal basal expression; every dosage
Description: (§1) hNIS transcriptional failure in thyroid carcinoma could be consequent to methylation of DNA in critical regulatory regions and could be reversed by inhibition of DNA-methyltransferase. Restoration of hNIS gene expression and activity from direct DNA-methyltransferase inhibition by 5-azacytidine has been shown. […] Since dcSAM is consumed by synthesis of polyamines (putrescine, spermidine, spermine) and its synthetic enzyme (adenosylmethionine decarboxylase) is stimulated by polyamine depletion, blockade of polyamine synthesis precipitously increases dcSAM levels. This should block DNA-methyltransferase activity and restore lost hNIS expression in dedifferentiated thyroid carcinomas. To assess this, human thyroid cell lines (NPA'87, papillary carcinoma, & KAK-1, follicular adenoma) without basal expression of hNIS or thyroglobulin (TG) mRNAs, were grown as monolayers in phenol red-free RPMI 1640 with 10% fetal bovine serum. […] Parallel cultures were assessed for Na[^125I] uptake (RAIU) in serum-free buffer, subtracting ^125I counts in buffer with choline (100 mM) to correct for non-specific counts and results normalized for cell density in each condition using thiazolyl blue (MTT) assays. […]

[4] = system: thyroglobulin (TG) mRNA; experiment: Thyroglobulin (TG) mRNA RT-PCR after polyamine synthesis inhibition; assay type: cell-based, human; details: NPA'87 and KAK-1; DFMO 1 or 3 mM, AdoDATO 10 or 30 μM, 6 days; higher doses greater effect
Description: as §1

[5] = system: KAK-1 cells; experiment: Na[125I] uptake (RAIU) after polyamine synthesis inhibition, KAK-1; assay type: cell-based, human; details: 30 μM AdoDATO
Description: as §1

[6] = system: hNIS mRNA; experiment: hNIS mRNA RT-PCR after polyamine synthesis inhibition; assay type: cell-based, human; details: NPA'87 and KAK-1; DFMO 1 or 3 mM, AdoDATO 10 or 30 μM, 6 days; higher doses greater effect
Description: as §1

[7] = system: NPA'87 cells; experiment: Na[125I] uptake (RAIU) after polyamine synthesis inhibition, NPA'87; assay type: cell-based, human; details: DFMO at 3 mM
Description: as §1

[8] = system: human thyroid cancer cell lines; details: several human thyroid cancer cell lines in vitro; cited from earlier work

Compound	TPO expression [3]	TG mRNA expression [4]	hNIS mRNA expression [6]	also measured
CC1=C(/C=C/C(C)=C/C=C/C(C)=C\C(=O)O)C(C)(C)CCC1 [13cis-retinoic acid]				iodide uptake activity [1]: nominal increase; additional patients gaining "weak" uptake [2]: three; patients re-establishing distinct iodide uptake after treatment [2]: one
NCCCCC[S+](CCN)CC1OC(n2cnc3c(N)ncnc32)C(O)C1O (stereo not drawn) [AdoDATO, S-adenosyl-1,8-diamino-3-thio-octane]	enhancing expression at every dosage	restored	restored	increase in RAIU [5]: ~5 fold
NCCCC(N)(C(=O)O)C(F)F (stereo not drawn) [DFMO, difluoromethylomithine]	enhancing expression at every dosage	restored	restored	increase in RAIU [7]: > 6 fold
gamma interferon: cytokine suggested in the literature to minimally enhance iodide uptake in thyroid cancer cell lines				enhancement of iodide uptake [8]: minimal enhancement
